Consider two molecules from patent publication US20080221084A1, “METHOD FOR REDUCING INFARCTION USING VASOPRESSIN ANTAGONIST COMPOUNDS, AND COMPOSITIONS AND COMBINATIONS THEREFOR” (OTSUKA PHARMACEUTICAL CO., LTD., priority 2006, published 2008).

Experiment [1] relates to rats with hypotonic hyponatremia (model of SIADH). The experiment in a line: DDAVP-induced hypotonic hyponatremia in rats (model of SIADH): plasma sodium and osmolarity. In kind it is in vivo, rat (male Sprague-Dawley). The settings on record: day 14, end of experiment; DDAVP infused 1 ng/h s.c. for 14 days, liquid diet; Mean ±SD.
Source text: The condition of hypotonic hyponatremia was created by infusing a selective vasopressin V2 agonist, DDAVP, into rats using an osmotic minipump implanted subcutaneously for 14 days in animals with access to only liquid food (a model of SIADH: syndrome of inappropriate antidiuretic hormone secretion). […] Rats either received a daily oral administration of tolvaptan or vehicle in an escalating dosing regime.
Tolvaptan was supplied as a spray-dried formulation, which is a mixture of tolvaptan (free form) and hydroxypropylcellulose (HPC-SL) at a ratio of 2:1. Therefore, the amount of tolvaptan (spray-dried form) was 1.5 times that of tolvaptan (free form). Tolvaptan was suspended in 1% hydroxypropylmethylcellulose solution.
The V2 agonist DDAVP ([deamino-Cys1, D-Arg8]-vasopressin was dissolved in saline (2 μg/mL).
Male Sprague-Dawley rats weighing 150-175 grams were used. Rats had access to feed and tap water. From day −3 (see the timeline in FIG. 1), rats were fed with a customized liquid food (RD-LD89 All-Purpose Liquid Diet Premix, Research Diets, Inc, New Brunswick, N.J.) and no additional food or water was provided. The liquid diet was mixed with water according to manufacturer's instructions.
Rats were acclimated for 3 days to liquid food before the study. Hyponatremia was induced by continuous subcutaneous infusion of 1 ng/h of DDAVP per animal using osmotic minipumps (infusion rate: 0.5 μL/h, ALZET model 2002, DURECT Corporation, Cupertino, Calif.) for 14 days (see FIG. 1). On day 0 when the osmotic minipump was implanted, rats were anesthetized by an intraperitoneal injection of a mixture of ketamine (40 mg/kg) and xylazine (5 mg/kg). The following procedure of implanting minipumps was performed using aseptic techniques. An area 4 cm long and 3 cm wide on the back of the animal (slightly posterior to the scapulae) was shaved and cleaned. A 1 cm cross mid-scapular incision was made. A hemostat was inserted into the incision and a pocket for the pump was created by opening and closing the jaw of the hemostat to spread the subcutaneous tissue. The pump (length 3 cm, diameter 0.7 cm and 0.4 grams) was inserted into the pocket, delivery portal first. The wound was closed with wound clips, and animals were placed on a heating pad for recovery, and eventually returned back to the cage.
On day 2 after the surgery, animals were switched to a nutritionally complete liquid food diet containing 14% dextrose (see FIG. 1). No additional water or solid food was provided.
Starting from day 4, an escalating dosing regime of tolvaptan or vehicle was used from 0.25 mg/kg to 10 mg/kg daily.
Experiment [2] deals with regional cardiac ischemia/reperfusion in rat heart. The experiment in a line: 20 minutes regional cardiac ischemia and 3 hours reperfusion in hyponatremic rats: myocardial infarction, risk size, hemodynamics. In kind it is in vivo, rat (male Sprague-Dawley). Particulars: 20 min regional ischemia, 3 h reperfusion on day 14, compared with saline-infused or vehicle-treated rats, TTC staining. From the text: The condition of hypotonic hyponatremia was created by infusing a selective vasopressin V2 agonist, DDAVP, into rats using an osmotic minipump implanted subcutaneously for 14 days in animals with access to only liquid food (a model of SIADH: syndrome of inappropriate antidiuretic hormone secretion). Control rats had the same surgical implantation of an osmotic minipump filled with saline. Rats either received a daily oral administration of tolvaptan or vehicle in an escalating dosing regime. At the end of the 14-day period, rats were subjected to 20 minutes of regional cardiac ischemia and 3 hours of reperfusion, and myocardial infarction was determined. At the final day of the study (day 14), rats were anesthetized, and the chest was open. Hearts were subjected to 20 minutes of regional ischemia followed by 3 hours of reperfusion. On day 14, rats were anesthetized with pentobarbital (30 mg/kg) by an intraperitoneal injection. Once anesthesia was induced, a tracheotomy was performed, and the trachea was cannulated and the animal was attached to a respirator. An oxygen supplement was fed into the tracheal line to maintain the pO2 above 100 mmHg. A cannula was inserted into the right carotid artery to monitor blood pressure and heart rate. The heart was exposed through a left thoracotomy in the fourth intercostal space, and the pericardium opened. A snare was placed around a major branch of the left coronary artery of the animal using a 5-0 suture. The suture ends were passed through a small segment of pliable polyethylene tubing to form a snare. Regional ischemia was induced by pulling the silk tightly through the tubing and clamping the tube with a hemostat. Experiments involved 20 minutes of ischemia and 3 hr reperfusion, which was achieved by releasing the snare. Myocardial ischemia and reperfusion were confirmed by the observation of regional cyanosis and hyperemia, respectively. […] Infarct size was determined by planimetry and expressed as a percentage of risk area infarcted. Data were expressed as the Mean ±SD (standard deviation). […]

Molecules are shown by their SMILES.

In experiment [1], `NC(=O)CC[C@@H]1NC(=O)[C@H](Cc2ccccc2)NC(=O)[C@H](Cc2ccc(O)cc2)NC(=O)CCSSC[C@@H](C(=O)N2CCC[C@H]2C(=O)N[C@H](CCCN=C(N)N)C(=O)NCC(N)=O)NC(=O)[C@H](CC(N)=O)NC1=O` [DDAVP, [deamino-Cys1, D-Arg8]-vasopressin] displayed a plasma osmolarity of 264±6 mOsm/kg and a plasma sodium of 114 ± 7 mmol/L. For the same molecule, the “myocardial infarct size (percentage of risk area infarcted)” value in experiment [2] is “more than double”.
For `Cc1ccccc1C(=O)Nc1ccc(C(=O)N2CCCC(O)c3cc(Cl)ccc32)c(C)c1` (stereo not shown) [Tolvaptan, 7-chloro-5-hydroxy-1-[2-methyl-4-(2-methylbenzoyl-amino)benzoyl]-2,3,4,5-tetrahydro-1H-benzazepine], in experiment [1], the plasma osmolarity was 304±8 mOsm/kg and the plasma sodium turned out to be 140 ± 3 mmol/L. For the same molecule, the “myocardial infarct size (percentage of risk area infarcted)” value in experiment [2] is on record as “reduced the infarct size in DDAVP-infused rats to a level similar to that in saline-infused rats”. In addition, the “myocardial infarct size (percentage of risk area infarcted)” value in experiment [2] (listed as tolvaptan) was “much smaller degree as compared with that in vehicle-treated rats”.
